Measurements reported in publication PMC6685790 (Nature structural & molecular biology, 2008).
Numbering of substitutions follows the chain as printed.

How the values were obtained:
Format in all cases: cell-based
GlyR α1^L64A = target: T1, GlyR α1^L64A (Homo sapiens, UniProt P23415, L92A); assay: Whole-cell recording of substituted GlyR in HEK cells
T1 sequence (P23415 29-457 L92A): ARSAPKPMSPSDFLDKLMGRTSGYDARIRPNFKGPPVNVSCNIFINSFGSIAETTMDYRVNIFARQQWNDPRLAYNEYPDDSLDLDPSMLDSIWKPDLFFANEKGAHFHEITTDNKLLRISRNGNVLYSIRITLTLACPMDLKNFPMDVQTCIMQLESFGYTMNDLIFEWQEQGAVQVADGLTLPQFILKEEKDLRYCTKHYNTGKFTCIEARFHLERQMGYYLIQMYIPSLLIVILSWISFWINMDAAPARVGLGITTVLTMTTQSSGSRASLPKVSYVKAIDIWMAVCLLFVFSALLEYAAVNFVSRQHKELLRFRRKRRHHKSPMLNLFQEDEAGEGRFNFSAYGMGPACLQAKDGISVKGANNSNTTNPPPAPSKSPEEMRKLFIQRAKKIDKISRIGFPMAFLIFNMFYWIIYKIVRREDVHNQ

GlyR α1^I62A = target: T2, GlyR α1^I62A (Homo sapiens, UniProt P23415, I90A); assay: as above
T2 sequence (P23415 29-457 I90A): T1 sequence (P23415 29-457 L92A) with I62A, A64L

GlyR α1^L134A, E157A = target: T3, GlyR α1^L134A, E157A (Homo sapiens, UniProt P23415, E185A/L162A); assay: as above
T3 sequence (P23415 29-457 L162A/E185A): T1 sequence (P23415 29-457 L92A) with A64L, L134A, E157A

GlyR α1^I111A = target: T4, GlyR α1^I111A (Homo sapiens, UniProt P23415, I139A); assay: as above
T4 sequence (P23415 29-457 I139A): T1 sequence (P23415 29-457 L92A) with A64L, I111A

GlyR α1^F108A = target: T5, GlyR α1^F108A (Homo sapiens, UniProt P23415, F136A); details: α1^F108A
T5 sequence (P23415 29-457 F136A): T1 sequence (P23415 29-457 L92A) with A64L, F108A

GlyR α1^F99A = target: T6, GlyR α1^F99A (Homo sapiens, UniProt P23415, F127A); assay: Whole-cell recording of substituted GlyR in HEK cells; details: α1^F99A
T6 sequence (P23415 29-457 F127A): T1 sequence (P23415 29-457 L92A) with A64L, F99A

[1] = maximal Zn^2+ response as percentage of maximal glycine response in same cell
[2] = read-out: Zn^2+ Activation EC50, direct activation without glycine
[3] = read-out: Zn^2+ Inhibition IC50, modulation of EC50 glycine currents

NCC(=O)O [Glycine, glycine]
Glycine Imax (GlyR α1^L64A): 5.6 ± 0.8 nA | Glycine nH (GlyR α1^L64A; Hill slope): 2 ± 0.6 | Glycine Imax (GlyR α1^I62A): 7.6 ± 0.7 nA | Glycine nH (GlyR α1^I62A; Hill slope): 2.5 ± 0.1 | Reduction in sensitivity to glycine (GlyR α1^L134A, E157A; α1^L134A with extra mutation E157A vs α1^L134A): 50 fold | Threshold concentration for glycine (GlyR α1^L134A, E157A; α1^L134A, E157A): > 100 µM | Glycine Imax (GlyR α1^I111A): 4.6 ± 0.8 nA | Glycine nH (GlyR α1^I111A; Hill slope): 1.3 ± 0.2 | Glycine Imax (GlyR α1^F108A): 4.5 ± 0.5 nA | Glycine nH (GlyR α1^F108A; Hill slope): 2.3 ± 0.1 | Glycine Imax (GlyR α1^F99A): 3.9 ± 0.4 nA | Glycine nH (GlyR α1^F99A; Hill slope): 2.3 ± 0.3

[Zn+2] [Zn^2+]
Zn^2+ Activation nH (GlyR α1^L64A; Hill slope): 1.1 ± 0.4 | Zn^2+ Activation Relative efficacy (% Gly Imax) (GlyR α1^L64A; [1]): 10 ± 3 % Gly Imax | EC50 (GlyR α1^L64A; [2]): 1.5 ± 1.3 µM | IC50 (GlyR α1^L64A; [3]): 70 ± 9 µM | Zn^2+ Activation Relative efficacy (% Gly Imax) (GlyR α1^I62A; maximal activation with 1 mM Zn^2+, as percentage of maximal glycine response in same cell): 3 ± 1 % Gly Imax | EC50 (GlyR α1^I62A; [2]): > 1000 µM | IC50 (GlyR α1^I62A; [3]): > 1000 µM | Reduction in sensitivity to Zn^2+ activation (GlyR α1^L134A, E157A; α1^L134A, E157A vs α1^L134A): 3 fold | Zn^2+ Activation nH (GlyR α1^I111A; Hill slope): 0.7 ± 0.2 | Zn^2+ Activation Relative efficacy (% Gly Imax) (GlyR α1^I111A; [1]): 83 ± 3 % Gly Imax | EC50 (GlyR α1^I111A; [2]): 470 ± 130 µM | IC50 (GlyR α1^I111A; [3]): > 1000 µM | EC50 (GlyR α1^F108A; [2]): 2.3 ± 0.6 µM | IC50 (GlyR α1^F108A; [3]): > 1000 µM | Zn^2+ Activation nH (GlyR α1^F108A; Hill slope): 0.7 ± 0.1 | Zn^2+ Activation Relative efficacy (% Gly Imax) (GlyR α1^F108A; [1]): 25 ± 6 % Gly Imax | EC50 (GlyR α1^F99A; [2]): 0.13 ± 0.03 µM | IC50 (GlyR α1^F99A; [3]): > 1000 µM | Zn^2+ Activation nH (GlyR α1^F99A; Hill slope): 1.1 ± 0.1 | Zn^2+ Activation Relative efficacy (% Gly Imax) (GlyR α1^F99A; [1]): 86 ± 13 % Gly Imax
